Measured values reported in US20200268864A1, “CANCER VACCINE COMPOSITIONS AND METHODS FOR USING SAME TO TREAT CANCER” (Dana-Farber Cancer Institute, Inc., priority 2017, published 2020).
“Also recorded” adds a separate entry of the source.

How the values were obtained:
PD-L1 on PBM tumor cells = test: PD-L1 expression on PBM tumor cells (RT-qPCR, flow cytometry); design: species or system mouse; details: PBM tumors in vivo and cultured PBM cells
Description: Tumors were first mechanically disrupted by chopping, then chemically digested in collagenase buffer (8 mL DMEM, 0.1 mL 1M HEPES, 0.5 mL FBS, 0.2 mL Pen/Strep, 1 m, 10× collagenase/hyaluronidase (Stemcell Technologies), 0.2 mL of 1 mg/mL DNase I (Stemcell Technologies) at 37° C. for 45 min. Single-cell suspensions of spleen and lymph nodes were obtained by mashed through a 70 um strainer using the plunger of a 3 mL or 5 mL syringe. Single cells suspensions were treated with red blood lysis buffer (4 mL NH4Cl+1 mL PBS with 2% calf serum) and washed with FACS buffer. Single cells suspensions were incubated with LIVE/DEAD Fixable Aqua Dead Cell Stain (Life Technologies, Cat # L34965) for 30 min and then blocked with anti-CD16/32 (BioLegend, clone 93) for 20 min on ice. Samples were then incubated with appropriate antibodies for 30 min. on ice. The Foxp3 staining buffer set (eBioscience, Cat #00-5523-00) was applied for intracellular markers staining. For the intracellular cytokine analysis, cells were stimulated with Leukocyte Activation Cocktail (BD Biosciences, Cat #550583) at 37° C. for 5 hours prior to FACS staining. […] Flow cytometry was performed on an LSR II (BD Biosciences) or LSRFortessa™ HTS (BD Biosciences) at the DFCI flow cytometry core facility, and all the data were analyzed using FlowJo software. […]

PBM and PPM tumor cells = test: Western blot of cGAS-STING signaling in tumor cells; type: cell-based, mouse
Brca1-null ID8 tumors = test: Subcutaneous Brca1-null ID8 tumors in WT or STING-KO mice; type: in vivo, mouse
Description: Single cells were obtained by digestion of primary ovarian tumors in collagenase buffer and then cultured in MOT media (DMEM/F12, 0.6% FBS, 10 ng/ml EGF, hydrocortisone 1 μg/ml, cholera toxin 1 ng/ml, 100 μg/ml penicillin-streptomycin, 5 μM Y27632). Tumor cells were transduced with lentiviral vector encoding luciferase (pLenti-blasticidin-luciferase) and then subjected to 3 days antibiotic selection with blasticidin 2 μg/ml. These luciferased tumors were transplanted orthotopically into syngeneic FVB/NJ mice to generated tumors for drug evaluation. Olaparib (AZD2281) was used by diluting 100 mg/ml stocks in DMSO with 10% 2-hydroxyl-propyl-β-cyclodextrine/PBS and administered daily by i.p. injection at dose of 50 mg/kg body weight. Mouse anti-PD-1 monoclonal antibody kindly provided by Gordon Freeman at DFCI was diluted in PBS (250 μg/100 μl/mouse) and injected by i.p. every 3 days. BX795 (Cat # HY-10514/CS-0259, MedChem Express) was prepared in DMSO (100 mg/ml) as stock solution and diluted in (25% PEG400+0.5% Tween)/PBS and administered daily by i.p. injection at dose of 30 mg/kg body weight. Anti-IFNAR1 antibody (Cat # BE0241; clone, MAR1-5A3; InVivoMab) was diluted in PBS (200 μg/100 μl/mouse) and injected by i.p. every 3 days. Tumor-bearing mice were equivalently divided into control and treatment groups according to the luminescent intensity. The endpoints were determined by tumor burden and ascites. For the CD8 depletion experiment, mice were injected intraperitoneally with anti-CD8 antibody (400 μg; clone YTS 169.4, BioXcell) 24 and 48 h before beginning olaparib treatment (50 mg/kg/day) and every 4 days thereafter.
Brca-1 deficient ID8 cells were generated using a CRISPR double nickase plasmid. […] Due to a lack of a reliable mouse BRCA1 antibody for Western blot, cells were analyzed by DNA sequencing to confirm the disruption of functional Brca1 allele. […]

## O=C(c1cc(Cc2n[nH]c(=O)c3ccccc23)ccc1F)N1CCN(C(=O)C2CC2)CC1 [olaparib, Olaparib]
PD-L1 on PBM tumor cells
  expression of immune-inhibitory ligand PD-L1 on tumor cells: highly enhanced expression; also recorded: significantly increased expression
PBM and PPM tumor cells
  STING signaling activity in tumor cells: little STING signaling activity
Brca1-null ID8 tumors; STING-KO hosts
  tumor growth (tumor weights): little effect
Brca1-null ID8 tumors; WT host
  abundance of intratumoral p-TBK1+ DCs: increased abundance
Brca1-null ID8 tumors; WT mice
  tumor growth (tumor weights): significantly inhibited the tumor growth
